Assays:
[1] = test system: LPA 18:2 in human plasma; experiment: Human whole blood (plasma) LPA assay; assay type: biochemical; conditions: 2 h at 37 C, LPA 18:2 by LC-MS/MS
Experimental: Blood is collected from healthy volunteers who gave informed consent into sodium heparin tubes by venipuncture, then gently inverted several times to prevent clotting. Tubes are centrifuged at 3000 rpm for 15 min at 4° C. then plasma is stored at −80° C. Compounds are diluted in DMSO in concentration dependent manner then 0.5 μL are dispensed into 96-well plate placed in ice. Plasma is defrosted on ice then 49.5 μL of plasma are added into the well containing 0.5 μL of compound (1% DMSO final). Plates are covered with a lid in polypropylene and incubated at +37° C., 5% CO2, for 2 h under gentle shaking (except controls which are stored at −20° C.).
At the end of the incubation, controls are defrosted in ice and transferred in the incubated plates for LC-MS/MS analysis with a non GLP-validated method. For the analysis, plasma proteins from a 10 μL incubated plates are precipitated with an excess of methanol containing the internal standard, LPA 17:0. After centrifugation, the corresponding supernatant is injected on a C18 column. Analytes are eluted out of the column under isocratic conditions. An API5500 QTRAP mass spectrometer (ABSciex™) is used for the detection of LPA 18:2. No calibration curve is prepared for LPA 18:2, however relative quantities are evaluated based on the peak area.

[2] = test system: LPA 18:2 in rat plasma; experiment: Rat whole blood (plasma) LPA assay; assay type: biochemical; conditions: 2 h at 37 C, LPA 18:2 by LC-MS/MS
In short: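 Heparinised rat plasma spiked with compound (1% DMSO final), incubated 2 h at 37 °C, 5% CO2 with shaking; controls kept at −20 °C. After methanol precipitation with LPA 17:0 internal standard, LPA 18:2 measured by LC-MS/MS (C18, isocratic), relative quantities from peak area without calibration.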

[3] = test system: TS-induced pulmonary inflammation, cells in BALF; experiment: Tobacco smoke (TS) model, lungs inflammatory cells recruitment; assay type: in vivo, female C57BL/6J mice; conditions: days 6 to 11, TS-exposed mice
Experimental: The aim of this experiment is to evaluate the efficacy and potency of a test compound administered p.o., once or twice daily on days 6 to 11, vs reference compounds, on pulmonary inflammation induced by 11 days of TS-exposure in female C57BL/6J mice, by assessing the effect of a test compound on the tobacco smoke induced recruitment of inflammatory cells to the lungs.
The test compounds are formulated in PEG200/0.5% methylcellulose (25/75, v/v) and are given at a dose volume of 10 mL/kg. Roflumilast and Dexamethasone are included as positive […] control, respectively. Each treatment group consists of 10 mice.
A first group of mice is subjected to daily TS-exposure for 5 consecutive days and sacrificed on the day 6, 24 h after the final TS-exposure.
A second group is exposed to air for 5 consecutive days (sham exposure) and sacrificed on the day 6, 24 h after the final air-exposure.
Compound and reference-treated groups are subjected to daily TS-exposure for 11 consecutive days and sacrificed on the day 12, 24 h after the final TS-exposure. Mice are dosed p.o. on days 6 to 11, twice daily, 1 h prior to and 6 h after each TS-exposure, with either vehicle, or the test compound at 3, 5, 10 or 30 mg/kg. Another group is dosed p.o. on days 6 to 11, once daily, 1 h prior to each TS-exposure, with either vehicle, or the test compound at 10 mg/kg.
An additional group is dosed p.o., once daily, on days 6 to 11, with roflumilast at 5 mg/kg, 1 h prior to each TS-exposure. Dexamethasone is dosed p.o., twice daily, on days 6 to 11, at 0.3 mg/kg, 1 h prior to and 6 h after each TS-exposure.
For each mouse, a BAL is performed using 0.4 mL of PBS. The lavage fluid is centrifuged, the supernatant removed and the resulting cell pellet re-suspended for total cell counts and cytospin slide preparation. […]
The lungs are dissected out and the left lobes are removed, snap-frozen and stored at −80° C. […] Cell data are presented as individual data points for each animal and the mean value calculated for each group. […]
Percentage inhibitions for the cell data are calculated using the formula below: […]

[4] = biological target: T1, hENPP2 (UniProtKB/SwissProt Q13822) (Homo sapiens (Human), UniProt Q13822); experiment: hENPP2 biochemical assay, LPC as substrate; conditions: LPC (palmitoyl 16:0) as substrate
In short: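 Human ENPP2 in 50 mM Tris-HCl pH 8.5, 500 mM NaCl, 5 mM KCl, 10 mM CaCl2, 0.1% fatty-acid-free BSA, reacted 30 min at 37 °C with LPC 16:0 (150 µM solution added 1:1). Released choline measured via choline oxidase/peroxidase/TOOS/4-aminoantipyrine quinoneimine dye at 555 nm; IC50 reported.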

[5] = biological target: T1, hENPP2; experiment: fluorescent hENPP2 biochemical assay, FS-3 as substrate; conditions: read-out: FS3-IC50
In short: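 hENPP2 in 50 mM Tris-HCl pH 8.0, 250 mM NaCl, 5 mM KCl, 1 mM MgCl2, 1 mM CaCl2, 0.1% fatty-acid-free BSA, preincubated with compound 30 min at room temperature. The 0.75 μM FS-3 solution was added and the mixture incubated 30 min at 30° C. Fluorescence (ex 485/em 520 nm) gives IC50.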

What does the source list for `CCc1nc2c(C)cc(N3CCN(CC(=O)N4CC(O)C4)CC3)cn2c1N(C)c1nc(-c2ccc(F)cc2)c(C#N)s1` [Compound 2, 2-((2-ethyl-6-(4-(2-(3-hydroxyazetidin-1-yl)-2-oxoethyl)piperazin-1-yl)-8-methylimidazo[1,2-a]pyridin-3-yl)(methyl)amino)-4-(4-fluorophenyl) thiazole-5-carbonitrile]?
IC50 [1]: 100 to 500 nM; IC50 [2]: 500 to 1000 nM; number of cells recovered in the BALF, in particular macrophage cells, epithelial cells, and neutrophils ([3]; 3 mg/kg twice daily p.o.): significantly inhibited; number of cells recovered in the BALF, in particular macrophage cells, epithelial cells, and neutrophils ([3]; 10 mg/kg twice daily p.o.): significantly inhibited

Which results are given for `CCc1nc2c(F)cc(N3CCN(CC(=O)N4CC(O)C4)CC3)cn2c1N(C)c1nc(-c2ccc(F)cc2)c(C#N)s1` [Compound 12, 2-((2-ethyl-8-fluoro-6-(4-(2-(3-hydroxyazetidin-1-yl)-2-oxoethyl)piperazin-1-yl)imidazo[1,2-a]pyridin-3-yl)(methyl)amino)-4-(4-fluorophenyl)thiazole-5-carbonitrile]?
IC50 [4]: 0.01 to 100 nM; IC50 [5]: 0.01 to 100 nM; IC50 [1]: 100 to 500 nM; IC50 [2]: 0.01 to 100 nM; number of cells recovered in the BALF, in particular macrophage cells, epithelial cells, and neutrophils ([3]; 10 mg/kg twice daily p.o.): significantly inhibited

For `CCc1nc2c(F)cc(N3CCN(CC(=O)NC)CC3)cn2c1N(C)c1nc(-c2ccc(F)cc2)c(C#N)s1` [Compound 13, 2-(4-(3-((5-cyano-4-(4-fluorophenyl)thiazol-2-yl)(methyl)amino)-2-ethyl-8-fluoroimidazo[1,2-a]pyridin-6-yl)piperazin-1-yl)-N-methylacetamide], which IC50 [1] is on record?
The IC50 was 100 to 500 nM.

What about the IC50 [2] of the same compound?
Its IC50 is 0.01 to 100 nM.

`CCc1nc2ccc(C3CCN(S(C)(=O)=O)CC3)cn2c1N(C)c1nc(-c2ccc(F)cc2)cs1` [Compound 80, N-(2-ethyl-6-(1-(methylsulfonyl)piperidin-4-yl)imidazo[1,2-a]pyridin-3-yl)-4-(4-fluorophenyl)-N-methylthiazol-2-amine] was tested. Which IC50 [4] did it give?
The IC50 was 500 to 1000 nM.

What about the IC50 [5] of the same compound?
The IC50 was 0.01 to 100 nM.

And the IC50 [1]?
Its IC50 is > 1000 nM.

What about the IC50 [2] of the same compound?
The IC50 was 500 to 1000 nM.

Which results are given for `CCc1nc2ccc(C3CCN(CC(=O)N4CC(O)C4)CC3)cn2c1N(C)c1nc(-c2ccc(F)cc2)cs1` [Compound 110, 2-(4-(2-ethyl-3-((4-(4-fluorophenyl)thiazol-2-yl)(methyl)amino)imidazo[1,2-a]pyridin-6-yl)piperidin-1-yl)-(3-hydroxyazetidin-1-yl)ethanone]?
IC50 [4]: 100 to 500 nM; IC50 [5]: 0.01 to 100 nM; IC50 [1]: > 1000 nM; IC50 [2]: > 1000 nM

Reference: US9670204B2, “Compounds and pharmaceutical compositions thereof for the treatment of inflammatory disorders” (Galapagos NV, priority 2013, dated 2017)
